From patent publication US9937240B2, “Peptide having fibrosis inhibitory activity and composition containing same” (GemVax & KAEL Co., Ltd., priority 2014, dated 2018) come the findings set out here.

One data set concerns fibronectin (FN). Briefly: TGF-β inhibition in HepG2 cell lines, qRT-PCR of fibronectin mRNA. The format is cell-based, human. Conditions: HepG2, TGF-β1 treated; positive control. As to the method: (§1) To verify the TGF-β inhibitory effect of PEP1, which is considered as the main cause of fibrosis, an experiment for confirming a TGF-β signaling inhibiting action in HepG2 cell lines was performed as follows.
(§2) Reagents and materials used in the experiment are as follows. After powdery PEP1 was dissolved in 0.2 μm filtered sterile water, aliquots were stored at −70° C. and then dissolved before use. As a cell line, HepG2 (ATCC HB-8065; American Type Culture Collection) was used, and recombinant human TGF-β1 was dissolved in 4 mM HCl, thereby preparing a 10 μg/mL stock. SB431542 (Sigma) used as a positive control was prepared in a 10 mM stock.
(§3) 2×10^6 HepG2 cells (ATCC HB-8065) were seeded into a 60 mm petri-dish and cultured in a CO2 incubator for 16 hours. Afterward, media were transferred to serum-free media (SFM), and then the cells were further cultured for 24 hours. […]
(§4) RNA was extracted from peptide-treated cells using an RNEASY® Plus Mini Kit (Qiagen) (RNA extraction kit) according to the manufacture's protocol. The extracted RNA was quantified, and then cDNA was synthesized from 1 μg of total RNA using a reverse transcription system (Promega). […] As TGF-β-related biomarkers, mRNA expression of fibronectin (FN), Smad2 and Smad4 were analyzed, and as a reference gene, GAPDH was used. […]
A general note: In qPCR the cycle at which signal appears reflects the starting amount.

The next data set concerns Smad2. Briefly: TGF-β inhibition in HepG2 cell lines, qRT-PCR of Smad2 mRNA. The format is cell-based, human. The settings on record: HepG2, 10 ng/ml TGF-β1; PEP1 1, 5 and 10 μM; 48-hour culture; reference gene GAPDH. As to the method: as §1, §2, §3, §4
The test system of a further data set is dermal fibrosis model. Put plainly: In vivo dermal fibrosis model, bleomycin-induced scleroderma. Conditions: C3H mice, PEP1 50 mg/kg intraperitoneally, bleomycin subcutaneously for 24 to 28 days. As to the method:
Meanwhile, experimental animals were divided into two animal models. The first model was an oral mucositis model, which was prepared by inducing an ulcer to the tongue of each C3H mouse by exposing the head and the neck to radiation (6 Gy, IR) for 5 straight days. The second model is a dermal fibrosis model, which was prepared by inducing local scleroderma by subcutaneously injecting 0.1 cc of a dilution of bleomycin which was known as the cause of pulmonary fibrosis in a 0.9% NaCl aqueous solution at a concentration of 0.5 mg/ml once a day for 24 to 28 days. Meanwhile, in the second dermal fibrosis model, C3H mice were divided into groups, each intraperitoneally treated with a placebo or PEP1 to give the final dose of 50 mg/kg, and subcutaneously treated with bleomycin at the concentrations mentioned in the preparation of the experimental animals for 24 to 28 days. 28 days later, the mice were sacrificed to detect scleroderma, followed by an experiment for examining fibrosis diffusion using Masson's trichrome staining.

The subject of the next data set is p63. Briefly: Biomarker expression in radiation-exposed NHEKs: p63. The format is cell-based, human. The settings on record: 1 mM of PEP1, 10 days after radiation exposure (6 Gy). As to the method:
(§5) PEP1 synthesized according to Example 1 and a placebo (sham) as a control were prepared. Normal human epidermal keratinocytes (NHEKs) were cultured in a monolayer to be used for a radiation exposure experiment. For the radiation exposure experiment, ionized radiation was used at an intensity of 6 Gy.
(§6) Also, to examine the change in expression levels of biomarkers for the NHEK cell lines due to the radiation exposure, the NHEKs were treated with each of the placebo and 1 mM of PEP1 and divided into non-exposed groups (−) and radiation-exposed groups (+), and then expression levels of the biomarkers were examined at day 1 and day 10 after the radiation exposure (refer to FIG. 14). In measurement of the expression levels of the biomarkers, GAPDH was used as a reference control.
(§7) Western blotting procedures were as follows. Peptide-treated cells were washed with PBS twice, collected into a 1.5 mL centrifuge tube using a cell scraper, followed by centrifugation (1,000 rpm, 4° C., 2 minutes). After removal of the obtained supernatant, 100 μL of RIPA buffer was added to the NHEKs. […]
(§8) […] of protein was transferred to a PVDF membrane (Millipore) by 8% sodium dodecyl sulfate-polyacrylamide gel electrophoresis (SDS-PAGE). […] Afterward, ECL detection (Amersham Pharmacia Biotech) was performed, and obtained images were analyzed using an image analyzer (GE Healthcare, IMAGEQUANT™ LAS 4000).

A further data set deals with P-Akt. Briefly: Biomarker expression in radiation-exposed NHEKs: P-Akt. The format is cell-based, human. Conditions: 1 mM of PEP1, after radiation exposure (6 Gy). As to the method: as §5, §6, §7, §8
The subject of another data set is N-Cad. Put plainly: Biomarker expression in radiation-exposed NHEKs: N-Cad. The format is cell-based, human. Conditions: 1 mM of PEP1, after radiation exposure (6 Gy). As to the method: as §5, §6, §7, §8
Data set [1] relates to Normal human epidermal keratinocytes (NHEKs). Put plainly: Cell differentiation of radiation-exposed NHEK cell lines. The format is cell-based. The settings on record: 1 mM of PEP1, 6 Gy ionizing radiation, cultured 10 days. As to the method: To confirm PEP1 effects on fibrosis induced by radiation exposure for anticancer treatment and other tumor treatments, an experiment for confirming a TGF-β inhibitory effect of PEP1 in radiation-exposed NHEKs was performed.
as §5
To examine the cell differentiation of NHEK cell lines according to radiation exposure, NHEKs were treated with each of the placebo and 1 mM of PEP1, and then divided into radiation-exposed groups and non-exposed groups, followed by culturing for 10 days (refer to FIG. 13).

In the next data set the test system is NHEK cell lines. Put plainly: In vitro radiation-induced premature senescence (RIPS) marker expression in NHEKs. The format is cell-based, human. The settings on record: radiation 0 to 10 Gy, qRT-PCR, western blotting, immunofluorescence staining. As to the method: (§9) PEP1 synthesized according to Example 1 and a placebo (sham) used as a control were prepared. NHEKs were cultured in a monolayer to prepare an in vitro radiation exposure experiment. For in vitro, in situ, and in vivo radiation exposure experiments, ionized radiation was used at various intensities ranging from 0 to 10 Gy (0, 2, 4, 6, 8, and 10 Gy).
The expression level of each marker was measured using qRT-PCR, western blotting, and immunofluorescence staining. For the measurement of the levels, senescence-associated β-galactosidase (SA β-Gal), p16INK4A, p-p53Ser15, p-ATM, γ-H2AX, 53BP1,H3K9me3, HP1γ, and HMGA2 were used as markers.

Another data set deals with GRHL2. Put plainly: Biomarker expression in radiation-exposed NHEKs: GRHL2. The format is cell-based, human. Conditions: 1 mM of PEP1, 10 days after radiation exposure (6 Gy). As to the method:
as §5, §6, §7, §8

Another data set has as its system oral mucositis model. Put plainly: In vivo oral mucositis model, radiation-induced tongue ulcer. The settings on record: C3H mice, PEP1 1 mg/kg intraperitoneally, 6 Gy IR for five consecutive days. As to the method:
as §9
Meanwhile, experimental animals were divided into two animal models. The first model was an oral mucositis model, which was prepared by inducing an ulcer to the tongue of each C3H mouse by exposing the head and the neck to radiation (6 Gy, IR) for 5 straight days. The second model is a dermal fibrosis model, which was prepared by inducing local scleroderma by subcutaneously injecting 0.1 cc of a dilution of bleomycin which was known as the cause of pulmonary fibrosis in a 0.9% NaCl aqueous solution at a concentration of 0.5 mg/ml once a day for 24 to 28 days.
For the in vivo experiment, first, in the first oral mucositis model, C3H mice were divided into groups, each intraperitoneally treated with a placebo or PEP1 to give a final dose of 1 mg/kg and exposed to radiation (6 Gy, IR) for five consecutive days to induce a tongue ulcer corresponding to an oral mucositis. Ten days later, the mice were sacrificed to collect tongue tissue, which was stained with toluidine blue and by H&E staining, to perform biopsy. […]

A further data set relates to Smad4. Briefly: TGF-β inhibition in HepG2 cell lines, qRT-PCR of Smad4 mRNA. Conditions: HepG2, 10 ng/ml TGF-β1; PEP1 1, 5 and 10 μM; 48-hour culture; reference gene GAPDH. The format is cell-based, human. As to the method: as §1, §2, §3, §4
In the next data set the test system is AsPC1 cells. Briefly: AsPC1 cell xenograft model: fibrosis, cancer cells and mouse weight. The format is in vivo, nude mice. The settings on record: for fibrosis (collagen parts stained in blue color in cancer tissue): administration starting 10 days after inoculation, PEP1 2 mg/kg once a day s.c. As to the method: To verify in vivo anticancer effects of PEP1 and gemcitabine on pancreatic cancer, xenograft experiments were performed using AsPC1 cell lines. A xenografting method used herein is as follows.
Reagents and materials used for the experiment are as follows. After powdery PEP1 was dissolved in 0.2 μm filtered sterile water, aliquots were stored at −70° C. and then dissolved before use, and gemcitabine was dissolved in 100% saline. 5-fluorouracil was dissolved in DMSO.
AsPC1 cell lines (Cell #6×10^5 cells/[…]), which were cell lines used in the experiment, are human pancreatic cancer metastatic cells purchased from the American Type Cell Culture (ATCC, Rockville, Md.).
AsPC1 cells were injected into each of nude mouse experiment groups (1) to (4).
The cultured 5×10^6 AsPC1 cells were subcutaneously injected into nude mice (BALB/c-nu/nu nude mice, purchased from Joongang Laboratory animal, Seoul, Korea). The injection was performed until cancer was grown to a size of 100 mm^3 (about 10 days). Following cancer engraftment, the mice were divided into groups, each group having a similar average weight, and then either or both of gemcitabine and Pep1 were subcutaneously and intraperitoneally injected into the mice according to the conditions for each of the four experiment groups below (refer to FIG. 1). Cancer volume was measured with calipers and calculated by the following formula [width^2×length×0.52].
After grafting, either or both of Pep1 and gemcitabine were administered to each of the four experiment groups.
(1) AsPC1 grafting control
(2) AsPC1 grafting+PEP1 2 mg/kg (once a day, s.c) administered group
After then, weight of each mouse was quantified every time. Also, cancer tissue sample preparation and cell proliferation marker (PCNA)/apoptosis marker (TUNEL) staining were performed.
For analyses of experiment results, averages between several experiment groups was assessed by a student's t-test.

The mark [2] stands for this setting: nude mice inoculated with AsPC1 cells, gemcitabine 125 mg/kg once every third day i.p.

In the case of `NC(=O)c1ccc(-c2nc(-c3ccc4c(c3)OCO4)c(-c3ccccn3)[nH]2)cc1` [SB431542], the fibronectin inhibition ratio with fibronectin (FN) was 60.7%.
For the molecule “EARPALLTSRLRFIPK (listed as Homo sapiens) [PEP1, telomerase-derived peptide, which consists of 16 amino acids; position [611-626] on telomerase]”, the “Smad2 mRNA expression” value with Smad2 was “concentration-dependently inhibited”. In the data set with dermal fibrosis model, the “defensive effect against induction of tissue fibrosis, indicated by biopsy” value was “defensive effects”. Besides, the p63 expression level result in the data set with p63 is reported as “increased”. Moreover, in the data set with P-Akt, the “P-Akt expression level (degree of cell survival)” value is “increased”. In addition, the N-Cad expression level entry with N-Cad is reported as “decreased”. For the same molecule, the “cell differentiation (fibrosis development) after radiation exposure” value in data set [1] was “hardly showed differentiation”. The “radiation-induced premature senescence (RIPS), indicated by marker expression” value in the data set with NHEK cell lines is recorded as “RIPS inhibitory effect”. Further, the GRHL2 expression level result with GRHL2 is reported as “increased”. For the same molecule, in the data set on oral mucositis model, the “defensive effect against exposure to radiation, indicated by biopsy” value is “defensive effects”. For the same molecule, the “Smad4 mRNA expression” value with Smad4 was “concentration-dependently inhibited”. In the data set on AsPC1 cells (setting [2]), the “fibrosis (collagen parts stained in blue color in cancer tissue)” value is recorded as “fibrosis was considerably inhibited”.
For `Nc1ccn([C@@H]2O[C@H](CO)[C@@H](O)C2(F)F)c(=O)n1` [gemcitabine], the “weight of a mouse” value with AsPC1 cells (day 20 after the administration, compared between the four experiment groups) was “the smallest”. For the same molecule, in the data set on AsPC1 cells (setting [2]), the “fibrosis (collagen parts stained in blue color in cancer tissue)” value was “fibrosis was considerably developed” and the “cancer cells (parts stained in red color)” value is given as “cancer cells were killed”.
